The record followed here is patent US9840501B2, “Morpholin-pyridine derivatives” (Hoffmann-La Roche Inc., priority 2014, dated 2017).

Structures are written as SMILES.

For one test, the target named is mouse TAAR1 (Mus musculus (Mouse), UniProt Q923Y8). Description: Radioligand binding assay on mouse TAAR1. The conditions noted are these: mouse TAAR1, membranes of stably transfected HEK-293 cells; first value of the pair; read-out: Ki (μM) mouse/rat: mouse. An outline of the steps: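 Membranes from HEK293 cells stably expressing mouse TAAR1, in 20 mM HEPES-NaOH pH 7.4 with 0.1 mM EDTA, incubated 1 h at 4 °C with ^3[H]-(S)-4-[(ethyl-phenyl-amino)-methyl]-4,5-dihydro-oxazol-2-ylamine and compounds (10 pM to 10 μM, duplicates). Nonspecific binding with 10 μM unlabeled ligand; bound radioactivity counted after filtration.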
Sequence of mouse TAAR1 (Q923Y8 whole entry): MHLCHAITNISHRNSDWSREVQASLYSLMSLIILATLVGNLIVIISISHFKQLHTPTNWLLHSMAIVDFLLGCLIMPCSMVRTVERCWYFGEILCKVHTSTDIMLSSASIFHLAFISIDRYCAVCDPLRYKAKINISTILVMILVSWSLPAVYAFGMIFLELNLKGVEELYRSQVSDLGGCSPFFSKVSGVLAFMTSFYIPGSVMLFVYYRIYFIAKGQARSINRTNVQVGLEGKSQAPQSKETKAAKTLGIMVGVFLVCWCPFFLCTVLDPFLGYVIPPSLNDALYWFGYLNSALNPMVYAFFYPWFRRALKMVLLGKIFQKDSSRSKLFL

In a further test the target is rat TAAR1 (Rattus norvegicus (Rat), UniProt Q923Y9). In words: Radioligand binding assay on rat TAAR1. The conditions noted are these: rat TAAR1, membranes of stably transfected HEK-293 cells; second value of the pair; read-out: Ki (μM) mouse/rat: rat. An outline of the steps:
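Membranes from HEK293 cells stably expressing rat TAAR1, in 20 mM HEPES-NaOH pH 7.4; displacement of 3[H]-(S)-4-[(ethyl-phenyl-amino)-methyl]-4,5-dihydro-oxazol-2-ylamine, nonspecific binding with 10 μM unlabeled ligand. Compounds 10 pM to 10 μM in duplicate, 1 h at 4 °C, filtration and scintillation counting.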

Sequence of rat TAAR1 (Q923Y9 whole entry): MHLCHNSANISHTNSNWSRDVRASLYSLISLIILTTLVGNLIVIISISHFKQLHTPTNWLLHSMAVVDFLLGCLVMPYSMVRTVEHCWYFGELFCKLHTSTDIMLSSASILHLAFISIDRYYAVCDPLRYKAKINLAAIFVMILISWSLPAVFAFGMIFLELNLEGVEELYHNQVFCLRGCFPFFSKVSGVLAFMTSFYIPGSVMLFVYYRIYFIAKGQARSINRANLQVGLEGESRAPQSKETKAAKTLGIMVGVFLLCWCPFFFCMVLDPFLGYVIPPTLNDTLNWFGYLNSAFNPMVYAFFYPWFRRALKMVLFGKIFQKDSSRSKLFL

Regarding `FC(F)(F)c1ccc(Nc2ccc([C@H]3CNCCO3)nc2)nc1` [Example 49, N-[6-[(2R)-Morpholin-2-yl]-3-pyridyl]-5-(trifluoromethyl)pyridin-2-amine], the Ki came out at 0.0052 µM at mouse TAAR1 and 0.066 µM at rat TAAR1.
On the same counts, the results for `O=C(Nc1ccc(C2CNCCO2)nc1)c1ccc(Cl)cc1` (racemic) [Example 7, (RS)-4-Chloro-N-(6-morpholin-2-yl-3-pyridyl)benzamide] are 0.0038 µM and 0.0745 µM.
On the same counts, the results for `Clc1ccc(Nc2cnc(C3CNCCO3)c(Cl)c2)nc1` (racemic) [Example 102, (RS)-5-Chloro-N-(5-chloro-2-pyridyl)-6-morpholin-2-yl-pyridin-3-amine] are 0.178 µM and 0.461 µM.
On to `O=C(Nc1ccc([C@@H]2CNCCO2)nc1)c1[nH]nc(C2CC2)c1Br` [Example 81, 4-Bromo-3-cyclopropyl-N-[6-[(2S)-morpholin-2-yl]-3-pyridyl]-1H-pyrazole-5-carboxamide], for which the Ki at mouse TAAR1 was determined as 0.006 µM; on rat TAAR1 it was 0.0152 µM.
For `Clc1ccc(Nc2ccc([C@@H]3CNCCO3)nc2)nc1` [Example 20, N-(5-Chloro-2-pyridyl)-6-[(2S)-morpholin-2-yl]pyridin-3-amine] the same measures were 0.0019 µM and 0.0751 µM.
As to `O=C(Nc1ccc([C@@H]2CNCCO2)nc1)c1ccc(Cl)cc1` [Example 31, 4-Chloro-N-[6-[(2S)-morpholin-2-yl]-3-pyridyl]benzamide], the Ki at mouse TAAR1 came to 0.003 µM; at rat TAAR1 it was 0.102 µM.
For `CCCc1n[nH]c(C(=O)Nc2ccc([C@@H]3CNCCO3)nc2)c1F` [Example 79, 4-Fluoro-N-[6-[(2S)-morpholin-2-yl]-3-pyridyl]-3-propyl-1H-pyrazole-5-carboxamide] the same measures were 0.0074 µM and 0.0568 µM.
For `CC(C)c1n[nH]c(C(=O)Nc2ccc([C@@H]3CNCCO3)nc2)c1F` [Example 121, 4-Fluoro-3-isopropyl-N-[6-[(2S)-morpholin-2-yl]-3-pyridyl]-1H-pyrazole-5-carboxamide] the same measures were 0.0239 µM and 0.0954 µM.
On the same counts, the results for `CCCCc1n[nH]c(C(=O)Nc2ccc([C@H]3CNCCO3)nc2)c1F` [Example 96, 3-Butyl-4-fluoro-N-[6-[(2R)-morpholin-2-yl]-3-pyridyl]-1H-pyrazole-5-carboxamide] are 0.0035 µM and 0.0554 µM.
On to `CCc1n[nH]c(C(=O)Nc2ccc([C@@H]3CNCCO3)nc2)c1Br` [Example 78, 4-Bromo-3-ethyl-N-[6-[(2S)-morpholin-2-yl]-3-pyridyl]-1H-pyrazole-5-carboxamide], for which the Ki on mouse TAAR1 amounted to 0.0056 µM; at rat TAAR1, 0.041 µM.
For `O=C(Nc1cnc(C2CNCCO2)c(Cl)c1)c1ccnc(C(F)(F)F)c1` (racemic) [Example 107, (RS)—N-(5-Chloro-6-morpholin-2-yl-3-pyridyl)-2-(trifluoromethyl)pyridine-4-carboxamide] the same measures were 0.143 µM and 0.371 µM.
For `Cc1cc(Nc2ccc(C(F)(F)F)cn2)cnc1C1CNCCO1` (racemic) [Example 104, (RS)-5-Methyl-6-morpholin-2-yl-N-[5-(trifluoromethyl)-2-pyridyl]pyridin-3-amine] the same measures were 0.0837 µM and 0.455 µM.
On the same counts, the results for `CC(C)Cc1n[nH]c(C(=O)Nc2ccc([C@H]3CNCCO3)nc2)c1F` [Example 95, 4-Fluoro-3-isobutyl-N-[6-[(2R)-morpholin-2-yl]-3-pyridyl]-1H-pyrazole-5-carboxamide] are 0.0113 µM and 0.0534 µM.
Take `O=C(Nc1ccc([C@H]2CNCCO2)nc1)c1[nH]nc(C2CC2)c1F` [Example 86, 3-Cyclopropyl-4-fluoro-N-[6-[(2R)-morpholin-2-yl]-3-pyridyl]-1H-pyrazole-5-carboxamide]: the Ki at mouse TAAR1 worked out at 0.0074 µM; on rat TAAR1, 0.156 µM.
On the same counts, the results for `CC(C)c1n[nH]c(C(=O)Nc2ccc([C@H]3CNCCO3)nc2)c1F` [Example 116, 4-Fluoro-3-isopropyl-N-[6-[(2R)-morpholin-2-yl]-3-pyridyl]-1H-pyrazole-5-carboxamide] are 0.015 µM and 0.12 µM.
For `CCCc1n[nH]c(C(=O)Nc2ccc([C@@H]3CNCCO3)nc2)c1Cl` [Example 39, 4-Chloro-N-[6-[(2S)-morpholin-2-yl]-3-pyridyl]-3-propyl-1H-pyrazole-5-carboxamide] the same measures were 0.007 µM and 0.0146 µM.
For `O=C(Nc1ccc([C@H]2CNCCO2)nc1)Nc1cccc(C(F)(F)F)c1` [Example 62, 1-[6-[(2R)-Morpholin-2-yl]-3-pyridyl]-3-[3-(trifluoromethyl)phenyl]urea] the same measures were 0.0035 µM and 0.0077 µM.
In the case of `CCCc1n[nH]c(C(=O)Nc2cnc(C3CNCCO3)c(F)c2)c1Cl` (racemic) [Example 114, (RS)-4-Chloro-N-(5-fluoro-6-morpholin-2-yl-3-pyridyl)-3-propyl-1H-pyrazole-5-carboxamide], the Ki on mouse TAAR1 stood at 0.0048 µM; at rat TAAR1 it was 0.0221 µM.
For the compound `CCOc1ccc(Nc2ccc(C3CNCCO3)nc2)cc1` (racemic) [Example 3, (RS)—N-(4-Ethoxyphenyl)-6-morpholin-2-yl-pyridin-3-amine], the figures for the Ki at mouse TAAR1 and at rat TAAR1 were 0.0048 µM and 0.374 µM, respectively.
For `O=C(Nc1cnc(C2CNCCO2)nc1)c1ccc(Cl)cc1` (racemic) [Example 72, (RS)-4-Chloro-N-(2-morpholin-2-ylpyrimidin-5-yl)benzamide] the same measures were 0.0058 µM and 4.93 µM.
On the same counts, the results for `Cc1cn[nH]c1C(=O)Nc1ccc([C@@H]2CNCCO2)nc1` [Example 45, 4-Methyl-N-[6-[(2S)-morpholin-2-yl]-3-pyridyl]-1H-pyrazole-5-carboxamide] are 0.162 µM and 1.13 µM.
For `O=C(Nc1ccc(F)cc1)Nc1ccc(C2CNCCO2)nc1` (racemic) [Example 9, (RS)-1-(4-Fluorophenyl)-3-(6-morpholin-2-yl-3-pyridyl)urea] the same measures were 0.0071 µM and 0.0106 µM.
With `O=C(Nc1ccc([C@@H]2CNCCO2)nc1)c1cccc(C(F)(F)F)c1` [Example 35, N-[6-[(2S)-Morpholin-2-yl]-3-pyridyl]-3-(trifluoromethyl)benzamide], the Ki at mouse TAAR1 was 0.0056 µM; on rat TAAR1 it was 0.0107 µM.
For `O=C(Nc1ccc(Cl)cc1)Nc1ccc(C2CNCCO2)nc1` (racemic) [Example 11, (RS)-1-(4-Chlorophenyl)-3-(6-morpholin-2-yl-3-pyridyl)urea] the same measures were 0.0038 µM and 0.0047 µM.
On the same counts, the results for `CC(C)c1cc(C(=O)Nc2ccc([C@@H]3CNCCO3)nc2)n(CC(F)(F)F)n1` [Example 92, 5-Isopropyl-N-[6-[(2S)-morpholin-2-yl]-3-pyridyl]-2-(2,2,2-trifluoroethyl)pyrazole-3-carboxamide] are 0.262 µM and 0.0597 µM.
For `CC(C)c1cc(C(=O)Nc2ccc([C@H]3CNCCO3)nc2)[nH]n1` [Example 58, 3-Isopropyl-N-[6-[(2R)-morpholin-2-yl]-3-pyridyl]-1H-pyrazole-5-carboxamide] the same measures were 0.0373 µM and 0.685 µM.
Regarding `Cc1cn[nH]c1C(=O)Nc1ccc([C@H]2CNCCO2)nc1` [Example 65, 4-Methyl-N-[6-[(2R)-morpholin-2-yl]-3-pyridyl]-1H-pyrazole-5-carboxamide], the Ki at mouse TAAR1 was 0.344 µM; on rat TAAR1, 4.47 µM.
Turning to `Clc1ccc(Nc2cnc(C3CNCCO3)nc2)cc1` (racemic) [Example 70, (RS)—N-(4-Chlorophenyl)-2-morpholin-2-yl-pyrimidin-5-amine], the figures for the Ki on mouse TAAR1 and at rat TAAR1 were 0.0186 µM and 1.45 µM, respectively.
For the compound `Clc1ccc(Nc2ccc([C@@H]3CNCCO3)nc2)cc1` [Example 18, N-(4-Chlorophenyl)-6-[(2S)-morpholin-2-yl]pyridin-3-amine], the Ki at mouse TAAR1 was 0.0015 µM; at rat TAAR1, 0.043 µM.
For `FC(F)(F)c1ccc(Nc2ccc([C@@H]3CNCCO3)nc2)cn1` [Example 22, 6-[(2S)-Morpholin-2-yl]-N-[6-(trifluoromethyl)-3-pyridyl]pyridin-3-amine] the same measures were 0.0126 µM and 0.247 µM.
For `FC(F)(F)c1ccnc(Nc2ccc([C@@H]3CNCCO3)nc2)c1` [Example 23, 6-[(2S)-Morpholin-2-yl]-N-[4-(trifluoromethyl)-2-pyridyl]pyridin-3-amine], the Ki was determined as 0.0124 µM on mouse TAAR1 and 0.154 µM at rat TAAR1.
For `O=C(Nc1ccc([C@@H]2CNCCO2)nc1)c1ccc(C(F)(F)F)cc1` [Example 33, N-[6-[(2S)-Morpholin-2-yl]-3-pyridyl]-4-(trifluoromethyl)benzamide] the same measures were 0.0056 µM and 0.052 µM.
For `FC(F)(F)c1nccc(Nc2ccc(C3CNCCO3)nc2)n1` (racemic) [Example 17, (RS)—N-(6-Morpholin-2-yl-3-pyridyl)-2-(trifluoromethyl)pyrimidin-4-amine] the same measures were 0.0382 µM and 0.466 µM.
For `CCCc1c(Cl)c(C(=O)Nc2ccc([C@@H]3CNCCO3)nc2)nn1C` [Example 46, 4-Chloro-1-methyl-N-[6-[(2S)-morpholin-2-yl]-3-pyridyl]-5-propyl-pyrazole-3-carboxamide], the Ki was 0.0188 µM on mouse TAAR1 and 0.651 µM on rat TAAR1.
